These results are taken from patent US5795876A, “Method of inhibiting vascular cell adhesion molecule-1 and treating chronic inflammatory diseases with 2, 6-di-alkyl-4-silyl-phenols” (Hoechst Marion Rousssel, Inc., priority 1997, dated 1998).

In data set [1] the test system is VCAM-1. Description: Cell surface ELISA for VCAM-1 in human aortic smooth muscle cells (HASMC), cytokine-induced (interleukin-4). In kind it is cell-based. Particulars: for inhibition at 50 µM: HASMC; for IC50: HSMC, eight serial dilutions, basal expression subtracted. The method, then: (§1) Cell Surface ELISA for VCAM-1/ICAM-1
(§2) Proliferating human umbilical vein endothelial cells (HUVEC) or human aortic smooth muscle cells (HASMC) from Clonetics (San Diego, Calif.) were plated onto 96-well plates in 100 μL medium per well at 20,000 cells per cm^2. The cultures were maintained in growth medium (EGM or SMGM2, Clonetics, San Diego, Calif.) for two days prior to addition of cytokines or drugs. Cytokines plus or minus compounds were added for 20 to 24 hours prior to analysis for adhesion molecule levels. Tumor necrosis factor (Genzyme, Cambridge, Mass.) was added to cultures at 500-1000 units/mL. Interleukin-4 (GIBCO-BRL, Gaithersburg, Md.) was added to cultures at 100-200 pg/mL. (Additions were made by transferring 100 μL of cytokines plus compounds serially diluted on a separate 96-well plate into the plates containing cells. The medium on the cultures was not exchanged prior to addition of effectors). The culture medium was removed, and the monolayers were washed twice with Hanks buffered saline solution (HBSS) at room temperature. The primary antibody (anti-human VCAM-1 from Upstate Biotechnology, Inc., Lake Placid, N.Y. or anti-human ICAM-1 from Immunotech, Inc., Westbrook, Me.) was added to each well (1 μg/mL in HBSS plus 5% newborn calf serum, GIBCO-BRL, Gaithersburg, Md.) and incubated at 37° C. for 1 hr. The wells were washed twice with HBSS, then 100 μL of a 1/1000 dilution of goat anti-mouse IgG conjugated to horse radish peroxidase (BioRad, Hercules, Calif.) in HBSS plus 5% newborn calf serum was added to each well and incubated for 1 hr at 37° C. The wells were washed three times with HBSS, then 100 μL of TMB substrate (BioRad, Hercules, Calif.) was added to each well. The reaction was stopped after blue color developed by addition of 50 μL of 1N H2 SO4. Absorbance is measured at 450 nm with a plate reader. IC50 values were determined from curves of absorbance values obtained from serial dilutions of compounds (dissolved in dimethyl sulfoxide).
(§3) The IC50 value is defined as the drug concentration that inhibits the cytokine-induced adhesion molecule expression by 50%. Maximal values for adhesion molecule expression in cytokine-induced cultures was subtracted from the basal level of adhesion molecule expression (minus cytokines) in the cultures to determine the level of induction. […] Each drug concentration was tested in quadruplicate wells. Single point tests of compounds at 50 μM were assayed as described for IC50 determinations, except that the data represent the level of inhibition without correction for basal expression. (Basal adhesion molecule expression was 10-20% of the total induced expression).
Table 1 summarizes the ability of various compounds of this invention to inhibit VCAM-1 using human aortic smooth muscle cells (HASMC). In these experiments, the cells were coincubated with interleukin-4 and the compounds listed about 20 hr before assaying cell surface VCAM-1 levels. Each column represents a separate experiment.
(§4) Table 3 illustrates the activity of selected compounds when eight serial dilutions of drug were tested against cytokine induction of VCAM-1 expression in both vascular endothelial and smooth muscle cells. Subtraction of basal VCAM-1 expression was also used in the calculation of IC50 values. Each compound was also tested in a similar manner for ICAM-1 inhibition. No inhibition of ICAM-1 was detected (up to 100 μM) in vascular smooth muscle cells.
(In general: ELISA stands for enzyme-linked immunosorbent assay.)

Data set [2] concerns VCAM-1. The experiment in a line: Cell surface ELISA for VCAM-1 in human umbilical vein endothelial cells (HUVEC), cytokine-induced (tumor necrosis factor-alpha). Format: cell-based. The conditions noted are these: for inhibition at 50 µM: read-out: VCAM-1 (% inh. 50 μM); for IC50: eight serial dilutions, basal expression subtracted. As for the experimental part: as §1, §2, §3
(§5) In these experiments, the cells were coincubated with tumor necrosis factor-alpha along with the indicated compounds about 20 to 24 hr before assaying cell surface adhesion molecule expression.
as §4

The subject of data set [3] is ICAM-1. The experiment in a line: Cell surface ELISA for ICAM-1 in human umbilical vein endothelial cells (HUVEC), cytokine-induced (tumor necrosis factor-alpha). In kind it is cell-based. The conditions noted are these: for inhibition at 50 µM: Homo sapiens, HUVEC, read-out: ICAM-1 (% inh. 50 μM). As for the experimental part: as §1, §2, §3, §5, §4
The test system of data set [4] is human umbilical vein endothelial cells (HUVEC). Description: Loss of HUVEC adherence to the tissue culture surface (microscope). In kind it is cell-based. The conditions noted are these: vascular endothelial cells; 50 and 100 μM; observed with a microscope.
Data set [5] deals with VCAM-1. Particulars: vascular endothelial cells; cited from earlier work.
Data set [6] relates to ICAM-1. Particulars: vascular endothelial cells; cited from earlier work.
Data set [7] has as its system VCAM-1. The experiment in a line: In vivo inhibition of LPS-induced VCAM-1 upregulation in rabbit aorta (immunohistochemistry). The arrangement: species or system New Zealand white rabbits. The conditions noted are these: 0.4% in diet for three weeks; LPS 40 μg/animal i.v.; aorta 4 hr after LPS; when adequately accumulated. The source says:
FIG. 1 illustrates the effect of 2,6-di-t-butyl-4-[(dimethylphenylsilyl)methylthio]phenol (MDL 29,353) on LPS induced VCAM-1 expression in rabbit aorta in vivo. Data are expressed as the percent of the aortic surface endothelium expressing VCAM-1 as measured by immunostaining with an anti-rabbit VCAM-1 antibody.
In Vivo Inhibition of VCAM-1 Upregulation by MDL 29,353 in Rabbit Aorta
New Zealand white rabbits were fed a diet of chow plus or minus 0.4% MDL 29,353 for three weeks prior to challenge with lipopolysaccharide (LPS, 40 μg/animal, i.v. ear vein). The aorta was removed from each animal 4 hr after LPS injection and rinsed briefly in phosphate buffered saline. VCAM-1 was immunohistochemistry was performed by incubating the tissues with RB1/9 antibody (mouse anti-rabbit VCAM-1) at 4° C. overnight. The bound RB1/9 was detected using a biotinylated goat anti-mouse secondary antibody (60 min, RT). VCAM-1 staining was accomplished by addition of streptavidin-alkaline phosphatase conjugate (30 min, RT) followed by an incubation with BT Red (Biotec, 10, RT). Images of the stained tissues were captured using an image analysis system for determination of the percentages of the aortic endothelium showing immunoreactivity with anti-VCAM antibody.

Setting [8] is: HSMC-1 experiment, 50 μM, interleukin-4, about 20 hr, no correction for basal expression, read-out: HSMC-1 (% inh. 50 μM) VCAM-1.
Setting [9] is: HSMC-2 experiment, 50 μM, interleukin-4, about 20 hr, no correction for basal expression, read-out: HSMC-2 (% inh. 50 μM) VCAM-1.
[10] abbreviates: HSMC-3 experiment, 50 μM, interleukin-4, about 20 hr, no correction for basal expression, read-out: HSMC-3 (% inh. 50 μM) VCAM-1.
[11] abbreviates: average of HSMC-1, HSMC-2, HSMC-3, 50 μM, read-out: VCAM-1 (Avg.) % inh.
Setting [12] is: 50 μM, TNF-alpha, 20 to 24 hr, average of three runs.
The mark [13] stands for this setting: 50 μM, TNF-alpha, 20 to 24 hr, average of two runs.
The mark [14] stands for this setting: 20 h, read-out: HSMC-2 (% inh. 50 μM) VCAM-1.
[15] abbreviates: 20 h, read-out: HSMC-3 (% inh. 50 μM) VCAM-1.
Setting [16] is: 20 h, read-out: HSMC-1 (% inh. 50 μM) VCAM-1.

Like-named read-outs stand apart in the source and are kept apart here.

As usually defined, the IC50 is the concentration that gives 50% inhibition. Low values mean inhibition by little substance, high ones a need for much substance. As to `CC(C)(C)c1cc(OC[Si](C)(C)c2ccccc2)cc(C(C)(C)C)c1O` [MDL 103,902, 2,6-Di-t-butyl-4-[(dimethylphenylsilyl)methyloxy]phenol], the inhibition at 50 µM in the data set on VCAM-1 [1] (setting [8]) came to 49%; in the data set with VCAM-1 [1] (setting [9]), 60%; in the data set on VCAM-1 [1] (setting [10]), 43%; in the data set on VCAM-1 [1] (setting [11]), 50.7%; in the data set with VCAM-1 [2] (setting [12]) it was 25.3%; with ICAM-1 [3] (setting [13]), 39%. Besides, the IC50 in the data set on VCAM-1 [1] was 5 µM; in the data set on VCAM-1 [2] it was 11 µM. For the same molecule, the “Inhibition of ICAM-1 expression in vascular endothelial cells” value with ICAM-1 [3] (50 and 100 μM, could be accounted for by loss of cell adherence) is reported as “significant inhibition of ICAM-1 expression”. Further, the “Cell adherence to the tissue culture surface” value in data set [4] is “loss of cell adherence”.
On to `Cc1cc(OC[Si](C)(C)c2ccccc2)cc(C)c1O` [MDL 103,719, 2,6-Dimethyl-4-[(dimethylphenylsilyl)methyloxy]phenol], for which the inhibition at 50 µM in the data set with VCAM-1 [1] (setting [14]) came out at 49%; with VCAM-1 [1] (setting [15]) it was 42%; in the data set on VCAM-1 [1] (read-out: VCAM-1 (Avg.) % inh.), 45.5%; in the data set on VCAM-1 [2] it was 17%; in the data set on ICAM-1 [3], 77%.
With `CC(C)(C)c1cc(SC[Si](C)(C)C)cc(C(C)(C)C)c1O` [MDL 28,235, 2,6-Di-t-butyl-4-[(trimethylsilyl)methylthio]phenol], the inhibition at 50 µM amounted to 7.8% in the data set on VCAM-1 [1] (setting [16]); 18% with VCAM-1 [1] (setting [14]); 42% in the data set with VCAM-1 [1] (setting [15]); 22.6% with VCAM-1 [1] (read-out: VCAM-1 (Avg.) % inh.); 4.3% with VCAM-1 [2].
With `S=C(S)N1CCCC1` [pyrollidine dithiocarbamate], the “Inhibition of cytokine-induced expression of VCAM-1” value in the data set on VCAM-1 [5] is reported as “inhibit cytokine-induced expression of VCAM-1”. Besides, the “Inhibition of cytokine-induced expression of ICAM-1” value in the data set on ICAM-1 [6] is “not ICAM-1”.
For the molecule `CC(C)(C)c1cc(SC[Si](C)(C)c2ccccc2)cc(C(C)(C)C)c1O` [MDL 29,353, 2,6-Di-t-butyl-4-[(dimethylphenylsilyl)methylthio]phenol], the inhibition at 50 µM turned out to be 58% with VCAM-1 [1] (setting [8]); 60% with VCAM-1 [1] (setting [9]); 46% with VCAM-1 [1] (setting [10]); 54.7% with VCAM-1 [1] (setting [11]); 8.7% in the data set with VCAM-1 [2] (setting [12]); 6% with ICAM-1 [3] (setting [13]). For the same molecule, the IC50 in the data set on VCAM-1 [1] stood at 10 µM; with VCAM-1 [2], 19 µM. In addition, the “Inhibition of LPS induced VCAM-1 expression in rabbit aortic endothelium (FIG. 1)” value in the data set on VCAM-1 [7] is given as “can inhibit the LPS induced level of VCAM-1 expression in rabbit aortic endothelium”.
Turning to `Cc1cc(SC[Si](C)(C)c2ccccc2)cc(C(C)(C)C)c1O` [MDL 104,518, 2-t-butyl-6-methyl-4-[(dimethylphenylsilyl)methylthio]phenol], the inhibition at 50 µM in the data set on VCAM-1 [1] (setting [16]) is 4.4%; with VCAM-1 [1] (setting [14]), 47%; in the data set with VCAM-1 [1] (setting [15]), 26%; in the data set with VCAM-1 [1] (read-out: VCAM-1 (Avg.) % inh.), 25.8%; in the data set with ICAM-1 [3] it was 78%.
For `CC(C)(C)c1cc(OC[Si](C)(C)c2ccc(Cl)cc2)cc(C(C)(C)C)c1O` [MDL 104,280, 2,6-Di-t-butyl-4-[(4-chlorophenyldimethylsilyl)methyloxy]phenol], the inhibition at 50 µM in the data set on VCAM-1 [1] (setting [16]) was 54.7%; with VCAM-1 [1] (setting [14]), 63%; in the data set on VCAM-1 [1] (setting [15]), 44%; with VCAM-1 [1] (read-out: VCAM-1 (Avg.) % inh.) it was 53.9%; with VCAM-1 [2], 27.3%; with ICAM-1 [3], 22%.
In the case of `COc1ccc([Si](C)(C)COc2cc(C(C)(C)C)c(O)c(C(C)(C)C)c2)cc1` [MDL 105,074, 2,6-Di-t-butyl-4-[(dimethyl-4-methoxyphenylsilyl)methyloxy]phenol], the inhibition at 50 µM turned out to be 28.3% in the data set on VCAM-1 [1] (setting [8]); 52% in the data set with VCAM-1 [1] (setting [9]); 47% in the data set on VCAM-1 [1] (setting [10]); 42.4% in the data set on VCAM-1 [1] (setting [11]); 20% with VCAM-1 [2] (setting [12]). Also, the IC50 with VCAM-1 [1] was 40 µM; with VCAM-1 [2], 12 µM.
As to `CC(=O)N[C@@H](CS)C(=O)O` [N-acetylcysteine], the “Inhibition of cytokine-induced expression of VCAM-1” value in the data set with VCAM-1 [5] was “inhibit cytokine-induced expression of VCAM-1”. For the same molecule, in the data set with ICAM-1 [6], the “Inhibition of cytokine-induced expression of ICAM-1” value was “not ICAM-1”.
